pEC50, pIC50: −log10 of the molar value.
Experiments:
BV2 cells = assay: BV2 cell proliferation (Cell Titer Glo); assay type: cell-based, murine; details: Mus musculus, BV-2, CSF1 100 ng/mL, 72 h
[1] = system: CSF1R phosphorylation in BV2 cells; assay: p-CSF1R Western blot assay in BV2 cells; assay type: cell-based, murine; details: Mus musculus, BV-2, 30 minutes pretreatment, CSF1 100 ng/mL 5 minutes
c-Kit = c-Kit (Homo sapiens (Human), UniProt P10721); assay: Biochemical HTRF kinase assay, c-Kit; details: for pIC50: recombinant human protein, read-out: cKit IC50; for cKit Fold: selectivity: IC50 of cKit as multiple of IC50 of CSF-1R;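 as to all read-outs here: enzyme reaction with substrate and ATP run in 384-well plates for 1 hour at room temperature, kinase activity detected by HTRF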
[2] = Brain protein binding study; assay type: in vitro ADME; details: mouse brain homogenate, equilibrium dialysis 4 hours
Description: On the day of experiment, brain homogenate was thawed in water bath at room temperature and then incubated at 37° C. for 10 min before use. Pretreat the dialysis membrane according to the manufacturer's instructions: the dialysis membrane strips were soaked in ultra pure water at room temperature for approximately 1 hr. After that, each membrane strip that contains 2 membranes was separated and soaked in ethanol:water (20:80 v:v) for approximately 20 min, after which it was ready for use or was stored in the solution at 2-8° C. for up to 1 month. Prior to the experiment, the membrane was rinsed and soaked for 20 min in ultra pure water for use. Then working solutions (400 μM) of test compound and control compound were prepared. Aliquots of working solutions (3 μL) were spiked into blank matrix (597 μL) to achieve final concentrations and mixed thoroughly. Aliquots of 50 μL loading matrix containing test compound or control compound in triplicate was transferred to Sample Collection Plate, respectively. The samples were matched with opposite blank buffer to obtain a final volume of 100 μL with a volume ratio of matrix:Dialysis Buffer (1:1, v:v) in each well immediately. The stop solution was added to these T0 samples of test compound and control compound. The plate was sealed and shaked at 800 rpm for 10 min. Then these T0 samples were stored at 2-8° C. pending further process along with other post-dialysis samples. The dialysis instrument was assembled following manufacture's instructions. An aliquot of 100 μL of the loading matrix containing test compound or control compound was transferred to the donor side of each dialysis well in triplicate and 100 μL of the Dialysis Buffer was loaded to the receiver side of the well. Then the plate was rotated at approximately 100 rpm in a humidified incubator with 5% CO2 at 37±1° C. for 4 hours. At the end of the dialysis, aliquots of 50 μL samples from the buffer side and matrix side of the dialysis device were taken into new 96-well plates (Sample Collection Plates). An equal volume of opposite blank matrix (buffer or matrix) in each sample was added to reach a final volume of 100 μL with volume ratio of matrix:Dialysis Buffer at 1:1 (v:v) in each well. All samples were further processed by protein precipitation for LC/MS/MS analysis.

PDGFRβ = PDGFRβ (Homo sapiens (Human), UniProt P09619); assay: Biochemical HTRF kinase assay, PDGFRβ; details: for pIC50: recombinant human protein, read-out: PDGFR-1β IC50; for PDGFR-1β Fold: selectivity: IC50 of PDGFR-1β as multiple of IC50 of CSF-1R;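 as to all read-outs here: kinase reaction with substrate/ATP mix run 1 h at room temperature in 384-well format, HTRF signal detection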
[3] = system: CSF1R phosphorylation in THP-1 cells; assay: p-CSF1R ELISA assay in THP1 cells; assay type: cell-based; details: Homo sapiens, THP1 cells pre-treated one hour, stimulated with hCSF1, read-out: THP1 pCSFIR ELISA EC50
[4] = system: CSF1R phosphorylation in THP-1 cells; assay: Inhibition of CSF1R phosphorylation in THP-1 monocytes (ELISA, Table D); assay type: cell-based, human; details: FIG. 6
Description: The THP-1 human monocyte-like cell line has intact CSF1R signaling that allows for the probing of the activation status of this pathway when stimulated by recombinant CSF. THP-1 cells were expanded in-vitro and pretreated with CSF1R inhibitors for an hour prior to stimulation with recombinant human M-CSF for 5 minutes. The cells were lysed, and the lysate was probed for activated CSF1R (pCSF1R) using ELISA. Using GraphPad Prism, a four-parameter logistic regression was applied to determine the potency of the CSF1R inhibitors.

[5] = system: ERK1/2 phosphorylation in BV2 cells; assay: p-ERK1/2 Western blot assay in BV2 cells; assay type: cell-based, murine; details: Mus musculus, BV-2, 30 minutes pretreatment, CSF1 100 ng/mL 5 minutes
[6] = system: microglia (Iba1+ cells) in cortex and hippocampus; assay: In vivo microglial depletion; design: species or system C57BL/6 mice; details: for Mean Cortical Ibal + Cell Density ± SEM (mm^−2) / Mean Hippocampal Ibal + Cell Density ± SEM (mm^−2): oral gavage BID 7 days; for Mean Cortical Ibal + Cell Density ± SEM (mm^−2): cortex; for Mean Hippocampal Ibal + Cell Density ± SEM (mm^−2): hippocampus
Description: To measure the in vivo pharmacodynamic effect, we quantified microglial depletion following repeated dosing of our compound in naive animals. Female C57BL/6 mice were given Example 134 (0, 50, 100, or 200 mg/kg/day, respectively) by oral gavage BID for 7 days. Following the final dose, mice were perfused with PBS followed by 4% paraformaldehyde (PFA). Brains were post-fixed overnight in 4% PFA and then transferred to 30% sucrose solution. Sagittal sections were sliced and stained for the microglial marker Iba1 and counterstained for DAPI. Brain sections were then imaged under 20× wide-field imaging, and the microglia density was quantified in the cortex and hippocampus.

Sequence of c-Kit (P10721 26-976): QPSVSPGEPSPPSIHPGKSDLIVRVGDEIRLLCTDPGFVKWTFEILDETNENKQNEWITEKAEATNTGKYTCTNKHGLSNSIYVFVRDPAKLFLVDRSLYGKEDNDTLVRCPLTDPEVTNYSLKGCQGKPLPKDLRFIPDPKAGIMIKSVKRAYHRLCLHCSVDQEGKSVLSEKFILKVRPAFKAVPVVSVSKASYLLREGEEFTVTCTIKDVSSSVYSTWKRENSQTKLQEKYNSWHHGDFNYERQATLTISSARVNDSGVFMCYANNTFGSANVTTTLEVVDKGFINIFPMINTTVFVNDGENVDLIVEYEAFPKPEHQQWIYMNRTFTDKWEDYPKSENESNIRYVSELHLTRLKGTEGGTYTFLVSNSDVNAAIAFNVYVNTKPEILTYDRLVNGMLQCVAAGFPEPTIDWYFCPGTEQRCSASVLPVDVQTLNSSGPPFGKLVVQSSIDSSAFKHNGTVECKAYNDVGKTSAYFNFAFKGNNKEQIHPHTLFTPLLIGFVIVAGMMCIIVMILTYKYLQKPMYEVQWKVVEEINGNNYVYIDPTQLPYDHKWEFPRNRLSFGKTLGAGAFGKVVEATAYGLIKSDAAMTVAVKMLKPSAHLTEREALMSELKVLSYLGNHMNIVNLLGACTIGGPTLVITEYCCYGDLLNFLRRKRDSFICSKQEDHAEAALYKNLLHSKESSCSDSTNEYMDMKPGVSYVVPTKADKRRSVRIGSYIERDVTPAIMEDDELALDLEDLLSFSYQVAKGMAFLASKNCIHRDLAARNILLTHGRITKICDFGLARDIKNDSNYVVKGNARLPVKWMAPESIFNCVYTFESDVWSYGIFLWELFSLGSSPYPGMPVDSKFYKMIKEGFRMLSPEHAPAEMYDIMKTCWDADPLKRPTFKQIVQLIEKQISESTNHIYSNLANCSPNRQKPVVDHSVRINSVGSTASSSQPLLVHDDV
Sequence of PDGFRβ (P09619 33-1106): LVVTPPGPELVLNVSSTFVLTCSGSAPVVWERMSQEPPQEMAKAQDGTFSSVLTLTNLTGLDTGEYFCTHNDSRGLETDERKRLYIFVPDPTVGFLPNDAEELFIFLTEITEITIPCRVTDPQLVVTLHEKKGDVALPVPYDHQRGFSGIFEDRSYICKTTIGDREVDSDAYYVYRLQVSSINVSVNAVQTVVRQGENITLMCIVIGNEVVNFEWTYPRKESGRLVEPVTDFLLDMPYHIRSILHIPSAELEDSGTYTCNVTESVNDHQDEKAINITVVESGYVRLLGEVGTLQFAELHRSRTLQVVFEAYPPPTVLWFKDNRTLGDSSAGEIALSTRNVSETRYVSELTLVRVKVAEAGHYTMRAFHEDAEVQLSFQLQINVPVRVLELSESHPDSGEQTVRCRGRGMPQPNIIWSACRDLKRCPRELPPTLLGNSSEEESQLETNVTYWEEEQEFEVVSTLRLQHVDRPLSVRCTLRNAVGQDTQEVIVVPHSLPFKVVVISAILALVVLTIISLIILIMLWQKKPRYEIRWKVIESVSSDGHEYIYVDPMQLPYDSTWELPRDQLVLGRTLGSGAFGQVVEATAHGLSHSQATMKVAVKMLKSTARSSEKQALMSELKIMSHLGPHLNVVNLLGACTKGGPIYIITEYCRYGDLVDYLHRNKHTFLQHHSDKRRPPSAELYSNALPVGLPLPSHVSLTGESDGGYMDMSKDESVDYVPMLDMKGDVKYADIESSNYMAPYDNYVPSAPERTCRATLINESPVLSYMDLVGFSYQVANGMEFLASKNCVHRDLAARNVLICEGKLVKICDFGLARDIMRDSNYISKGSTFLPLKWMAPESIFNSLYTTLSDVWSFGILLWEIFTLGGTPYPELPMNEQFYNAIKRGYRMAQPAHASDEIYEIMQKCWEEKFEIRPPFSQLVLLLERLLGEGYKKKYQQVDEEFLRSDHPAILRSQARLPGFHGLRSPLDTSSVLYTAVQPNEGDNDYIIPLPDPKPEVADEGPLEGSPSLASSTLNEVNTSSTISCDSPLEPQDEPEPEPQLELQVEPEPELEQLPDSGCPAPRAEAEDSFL

| Structure (SMILES) | pIC50 (c-Kit) | cKit Fold (c-Kit) [fold] | BPB-mouse (Bound) (%) [2] [%] | pIC50 (PDGFRβ) | PDGFR-1β Fold (PDGFRβ) [fold] | other results |
| --- | --- | --- | --- | --- | --- | --- |
| COc1ccc(COc2ncc(Cc3ccnc4cc(OC)cnc34)cc2OC)nc1 [Example 16, 3-methoxy-8-((5-methoxy-6-((5-methoxypyridin-2-yl)methoxy)pyridin-3-yl)methyl)-1,5-naphthyridine] | 6.06 | >100 | 98.10 | < 6.00 | >100 | pEC50 (BV2 cells): 7.34; pEC50 [1]: 7.33; pEC50 [3]: 7.97; CSF1R phosphorylation in CSF1R-stimulated THP-1 monocytes [4]: dose-dependent inhibition of CSF1R phosphorylation; pEC50 [5]: 7.67 |
| COc1cnc2c(Cc3cnc(OCc4cc5n(n4)CCOC5)c(OC)c3)ccnc2c1 [Example 73, 2-(((3-methoxy-5-((7-methoxy-1,5-naphthyridin-4-yl)methyl)pyridin-2-yl)oxy)methyl)-6,7-dihydro-4H-pyrazolo[5,1-c][1,4]oxazine] | < 6.00 | >100 | 95.5 | < 6.00 | >100 |  |
| COc1ccc(COc2ncc(Cc3ccnc4cc(N5CCN(C)CC5)cnc34)cc2OC)nc1 [Example 116] | < 6.00 | >100 | 95.5 | < 6.00 | >100 |  |
| COc1ccc(COc2ncc(Cc3ccnc4cc(-c5ccn(C)n5)cnc34)cc2OC)nc1 [Example 134, 8-((5-methoxy-6-((5-methoxypyridin-2-yl)methoxy)pyridin-3-yl)methyl)-3-(1-methyl-1H-pyrazol-3-yl)-1,5-naphthyridine] |  |  | 98.8 | 6.40 | 59.7 | decrease of microglia density in the cortex compared to vehicle control ([6]; 50 mg/kg): > 22%; Mean Cortical Ibal + Cell Density ± SEM (mm^−2) ([6]; 50 mg/kg): 63.6 ± 8.1 mm^−2; Mean Hippocampal Ibal + Cell Density ± SEM (mm^−2) ([6]; 50 mg/kg): 73.3 ± 7.8 mm^−2; decrease of microglia density in the cortex compared to vehicle control ([6]; 100 mg/kg): > 91%; decrease of microglia density in the hippocampus relative to vehicle control ([6]; 100 mg/kg): > 83%; Mean Cortical Ibal + Cell Density ± SEM (mm^−2) ([6]; 100 mg/kg): 6.9 ± 1.2 mm^−2; Mean Hippocampal Ibal + Cell Density ± SEM (mm^−2) ([6]; 100 mg/kg): 13.6 ± 2.2 mm^−2; decrease of microglia density in the cortex compared to vehicle control ([6]; 200 mg/kg): > 98%; decrease of microglia density in the hippocampus relative to vehicle control ([6]; 200 mg/kg): > 93%; Mean Cortical Ibal + Cell Density ± SEM (mm^−2) ([6]; 200 mg/kg): 1.5 ± 0.3 mm^−2; Mean Hippocampal Ibal + Cell Density ± SEM (mm^−2) ([6]; 200 mg/kg): 5.6 ± 0.9 mm^−2 |
| COc1cnc2c(Cc3cnc(OCc4cc5n(n4)C[C@H](OC)C5)c(OC)c3)ccnc2c1 [Example 136, (R)-3-methoxy-8-((5-methoxy-6-((5-methoxy-5,6-dihydro-4H-pyrrolo[1,2-b]pyrazol-2-yl)methoxy)pyridin-3-yl)methyl)-1,5-naphthyridine] | < 6.00 | >100 | 97.3 | < 6.00 | >100 |  |

Source: patent US20250360145A1, “CSF-1R INHIBITORS AND USES THEREOF” (Myrobalan Therapeutics, Inc., priority 2022, published 2025)
